Values of other authors as cited in patent US12533388B2, “Compositions and methods for prevention and treatment of immune deficiency and inflammation” (The United States GOVERNMENT As Represented By The …, priority 2020, dated 2026).

Experiments:
[1] = tested on: rat insulinoma cells (RINm5F); settings: in vitro
Saccharomyces cerevisae = settings: by inhibiting chitinase
[2] = tested on: STZ-induced diabetic mice; settings: as compared to the STZ-induced diabetic control group without CHP treatment

O=C1N[C@@H](Cc2cnc[nH]2)C(=O)N2CCC[C@@H]12 [CHP, Cyclo (His-Pro)]
STZ-induced cytotoxicity and apoptosis [1]: prevented
growth of Saccharomyces cerevisae (Saccharomyces cerevisae): inhibit
Oral glucose tolerance test (OGTT) values [2]: significantly decreased
plasma glucose levels dropped [2]: 60%
